From article PMC5108032, “Discovery of a Quinoline-4-carboxamide Derivative with a Novel Mechanism of Action, Multistage Antimalarial Activity, and Potent in Vivo Efficacy” (Journal of Medicinal Chemistry, 2016)

Assay: Rat pharmacokinetics
Assay type: in vivo, male Sprague Dawley rats
Conditions: male Sprague Dawley rat, intravenous at 1 mg/kg
Description: (100 µl) was then removed from both acceptor and donor compartments and mixed with acetonitrile (80 µl) containing an internal standard. The samples were centrifuged (10 min, 5 °C, 3270 g) to sediment precipitated protein and sealed prior to UPLC-MS/MS analysis using a Quattro Premier XE (Waters Corp, USA). Pe was calculated as shown in the below equation:
Pe (nm/sec) = 107 x - In [1 - CA (t) / Cequi]
CA(t) = peak area of compound present in acceptor well at time t = 18000 sec Cequi = [CD(t) * VD + CA(t) * VA] / (VD + VA)
VA = acceptor well volume
CD(t) = peak area of compound present in donor well at time t = 18000 sec Recovery of compound from donor and acceptor wells was calculated and data was only accepted when recovery exceeded 70 %. […]
Compound was dosed as a bolus solution intravenously (12) at 3mg free base/kg (dose volume: 5 mL/kg; dose vehicle: 10% DMSO, 90% saline) to female NMRI mice (n=3) or dosed orally (12 and 13) by gavage as a solution at 10 mg free base/kg (dose volume: 10mL/kg; Dose vehicle: 5 or 10% DMSO; 40% PEG400; 50 or 55% distilled water) to female NMRI mice (n=3/dose level). […] The level of each compound in mouse blood was determined by UPLC-MS/MS as previously reported.9 Pharmacokinetic parameters were derived from the blood concentration time curve using PKsolutions software v 2.0 (Summit Research Services, USA). […]

Clb: 32 mL min^–1 kg^–1
SMILES: O=C(NCCN1CCCC1)c1cc(-c2ccc(CN3CCOCC3)cc2F)nc2ccc(F)cc12 [Compound 41]
